Measurements: patent publication US5294603A, “Pharmaceutical compositions containing didemnins” (The Board of Trustees of The University of Illinois, priority 1992, dated 1994)
Values after ≈ are worked out from the molar mass of the structure shown. Read-outs that look alike come from different tables or passages of the source. Numbered stars: 1 amine (or outer) side, 2 acyl side, 3 side chain; on linkers, the order of the positions; unused ones are H or OH. Bridge positions count the residues as written; N and C are the ends. Square brackets hold non-standard residues; d marks the D form. Peptide text beside a SMILES is read from it. * marks the point of attachment. X1 = CC[C@H](C)[C@@H](N[*:1])[C@@H](O)CC(=O)O[C@H](C(=O)[C@H](C)C(=O)[*:2])C(C)C; NMeY = CN[C@@H](Cc1ccc(O)cc1)C(=O)O; dNMeL = CN[C@H](CC(C)C)C(=O)O; X5 = O=C(Cc1ccccc1)C(=O)*; Isobutyryl = CC(C)C(=O)*; Aze = O=C(O)[C@@H]1CCN1; Pyruvoyl = CC(=O)C(=O)*; Propionyl = CCC(=O)*; Sar = CNCC(=O)O

Legend:
Visna virus (VIV) = format: cell-based; design: key to % Protection / VIV Protection: I, indeterminate
[1] = system: Nb2 cells, rat T-cell node lymphoma; assay: Competitive binding with [3H]didemnin B to Nb2 cells; conditions: 3 h at 37° C.
Method: The immunosuppressive assay was performed by measuring competitive binding of tested compounds with [^3 H]didemnin B to Nb2 cells, rat T-cell node lymphoma. See, Russell, D. H., et al., J. Immunology, 1987, 138, 276-284.
^a Competing didemnins incubated with approximately 25 ng of [^3

L1210 [2] = system: L1210
[3] = system: BHK = Baby hamster kidney cells
[4] = system: cells of the VIV assay (not named)
[5] = system: L1210 murine leukemia cells; conditions: Table 9
L1210 [6] = assay: L1210 cytotoxicity, inhibition at fixed doses (Table 10); format: cell-based, murine
[7] = system: DNA synthesis in Nb2 node lymphoma cells; assay: Inhibition of ongoing DNA synthesis in prolactin-stimulated Nb2 cells; format: cell-based, rat; conditions: Nb2 cells stimulated with prolactin for 24 h
Method: Also inhibitions of protein and DNA synthesis of several compounds were measured using Nb2 node lymphoma cells which were stimulated by a treatment of cells with prolactin. (ibid.)
^a Nb2 cells were stimulated with prolactin for 24 h, then exposed to
^b 50% Inhibitory concentration, calculated with linear regression

SMILES	VIV Protection (Visna virus (VIV))	Inhibition of [3H]didemnin B binding (%) ([1]; 0.001 μg/mL)	Inhibition of [3H]didemnin B binding (%) ([1]; 0.01 μg/mL)	Inhibition of [3H]didemnin B binding (%) ([1]; 0.1 μg/mL)	Inhibition of [3H]didemnin B binding (%) ([1]; 1 μg/mL)	BHK [3]	Cytotoxicity L1210 IC50 [5] [ng/mL]	also measured
CCC(=O)N(C)[C@H](CC(C)C)C(=O)N[C@@H]1C(=O)N[C@H]([C@@H](C)CC)[C@@H](O)CC(=O)O[C@@H](C(C)C)C(=O)[C@H](C)C(=O)N[C@@H](CC(C)C)C(=O)N2CCC[C@H]2C(=O)N(C)[C@@H](Cc2ccc(OC)cc2)C(=O)O[C@@H]1C [(N-Propionyl)Didemnin A (98), N-propionyl-didemnin A] (Propionyl-[dNMeL]T[X1]LP[NMeY](Me); ester 2-C)	I	3	2	40	72	0, PT	0.3	cytotoxicity (result in words) (L1210 [2]; Table 1 footnote and text): retained the cytotoxicity of didemnin B; Cytotoxicity percent L1210 inhibition (L1210 [2]; dose 5 ng/mL): 93%; Cytotoxicity percent L1210 inhibition (L1210 [2]; dose 12.5 ng/mL): 95%; Cytotoxicity percent L1210 inhibition (L1210 [2]; dose 25 ng/mL): 95%; VIV Toxicity [4]: 92
Cc1cn([C@H]2C[C@H](N=[N+]=[N-])[C@@H](CO)O2)c(=O)[nH]c1=O [AZT, reference compound]								% Cytotoxicity ([4]; 1 µM): 5; % Cytotoxicity ([4]; 3 µM): 7; % Cytotoxicity ([4]; 10 µM): 11; % Cytotoxicity ([4]; 30 µM): 14
CC[C@H](C)[C@H]1NC(=O)[C@@H](NC(=O)[C@@H](CC(C)C)NC)[C@@H](C)OC(=O)[C@H](Cc2ccc(OC)cc2)N(C)C(=O)[C@@H]2CCCN2C(=O)[C@H](CC(C)C)NC(=O)[C@@H](C)C(=O)[C@H](C(C)C)OC(=O)C[C@@H]1O [Didemnin A (1), Didemnin A, reference compound] (H-[dNMeL]T[X1]LP[NMeY](Me); ester 2-C)	< 0	3	8	20	35		30	Inhibition (%) (L1210 [6]; dose 25 ng/mL, tested 4/22/1990): 80%; Inhibition (%) (L1210 [6]; dose 250 ng/mL, tested 4/22/1990): 100%; IC50 DNA [7]: 2000 ng/mL (≈ 2120 nM); Cytotoxicity percent L1210 inhibition (L1210 [2]; dose 5 ng/mL): 0%; Cytotoxicity percent L1210 inhibition (L1210 [2]; dose 12.5 ng/mL): 19%; Cytotoxicity percent L1210 inhibition (L1210 [2]; dose 25 ng/mL): 25%
CC[C@H](C)[C@H]1NC(=O)[C@@H](NC(=O)[C@@H](CC(C)C)N(C)C(=O)[C@@H]2CCCN2C(=O)C(C)O)[C@@H](C)OC(=O)[C@H](Cc2ccc(OC)cc2)N(C)C(=O)[C@@H]2CCCN2C(=O)[C@H](CC(C)C)NC(=O)[C@@H](C)C(=O)[C@H](C(C)C)OC(=O)C[C@@H]1O (stereo partly shown) [Didemnin B (17), Didemnin B, reference compound]		3	7	59	77		0.5	Inhibition (%) (L1210 [6]; dose 25 ng/mL, tested 4/18/1991): 99%; Inhibition (%) (L1210 [6]; dose 250 ng/mL, tested 4/18/1991): 99%; IC50 DNA [7]: 90 ng/mL (≈ 80.9 nM); Cytotoxicity percent L1210 inhibition (L1210 [2]; dose 5 ng/mL): 93%; Cytotoxicity percent L1210 inhibition (L1210 [2]; dose 12.5 ng/mL): 95%; Cytotoxicity percent L1210 inhibition (L1210 [2]; dose 25 ng/mL): 95%; IC50 (L1210 cells): 0.5 ng/mL (≈ 0.449 nM)
CC[C@H](C)[C@H]1NC(=O)[C@@H](NC(=O)[C@@H](CC(C)C)N(C)C(=O)[C@@H](N)CC(C)C)[C@@H](C)OC(=O)[C@H](Cc2ccc(OC)cc2)N(C)C(=O)[C@@H]2CCCN2C(=O)[C@H](CC(C)C)NC(=O)[C@@H](C)C(=O)[C@H](C(C)C)OC(=O)C[C@@H]1O [N-(L-Leu)Didemnin A (99), N-(L-Leu)didemnin A] (H-L[dNMeL]T[X1]LP[NMeY](Me); ester 3-C)						0, PT	4	
CC[C@H](C)[C@H]1NC(=O)[C@@H](NC(=O)[C@@H](CC(C)C)N(C)C(=O)[C@@H]2CCCN2)[C@@H](C)OC(=O)[C@H](Cc2ccc(OC)cc2)N(C)C(=O)[C@@H]2CCCN2C(=O)[C@H](CC(C)C)NC(=O)[C@@H](C)C(=O)[C@H](C(C)C)OC(=O)C[C@@H]1O [N-(L-Pro)Didemnin A (100), N-(L-Prolyl) didemnin A] (H-P[dNMeL]T[X1]LP[NMeY](Me); ester 3-C)	< 0					0, PT	4	
COc1ccc(C[C@H]2C(=O)O[C@H](C)[C@H](NC(=O)C(CC(C)C)N(C)C(=O)[C@@H]3CCCN3C(=O)[C@H](C)O)C(=O)N[C@H](C(C)C)[C@@H](O)CC(=O)O[C@@H](C(C)C)C(=O)[C@H](C)C(=O)N[C@@H](CC(C)C)C(=O)N3CCC[C@H]3C(=O)N2C)cc1 (stereo partly shown) [Nordidemnin B (22), Nordidemnin B]	-25					0, PT	1	
CC[C@H](C)[C@H]1NC(=O)[C@@H](NC(=O)[C@@H](CC(C)C)NC)[C@@H](C)OC(=O)[C@H](Cc2ccc(OC)cc2)N(C)C(=O)[C@@H]2CCCN2C(=O)[C@H](CC(C)C)NC(=O)[C@@H](C)C(=O)[C@H](C(C)C)OC(=O)C[C@@H]1OC(C)=O [O-Acetyldidemnin A (114), O-Acetyldidemnin A]		1	4	15	10	0, PT	300	IC50 DNA [7]: 270,000 ng/mL
CC[C@H](C)[C@H]1NC(=O)[C@@H](NC(=O)[C@@H](CC(C)C)N(C)C(=O)[C@@H]2CCCN2C(=O)C(=O)Cc2ccccc2)[C@@H](C)OC(=O)[C@H](Cc2ccc(OC)cc2)N(C)C(=O)[C@@H]2CCCN2C(=O)[C@H](CC(C)C)NC(=O)[C@@H](C)C(=O)[C@H](C(C)C)OC(=O)C[C@@H]1O [Phepyruv-Pro-DA, PhePyruv-Pro Didemnin A] (X5-P[dNMeL]T[X1]LP[NMeY](Me); ester 3-C)								% Protection (Visna virus (VIV)): I; IC50 (L1210 cells): 3.5 ng/mL (≈ 2.95 nM); cytotoxicity compared with DDB (L1210 cells): only partially active
CC[C@H](C)[C@H]1NC(=O)[C@@H](NC(=O)[C@@H](CC(C)C)N(C)C(=O)[C@@H]2CCN2C(=O)C(C)=O)[C@@H](C)OC(=O)[C@H](Cc2ccc(OC)cc2)N(C)C(=O)[C@@H]2CCCN2C(=O)[C@H](CC(C)C)NC(=O)[C@@H](C)C(=O)[C@H](C(C)C)OC(=O)C[C@@H]1O [Pyruv-Azt-DA, Pyruv-Azt Didemnin A] (Pyruvoyl-[Aze][dNMeL]T[X1]LP[NMeY](Me); ester 3-C)								% Protection (Visna virus (VIV)): I; IC50 (L1210 cells): 0.6 ng/mL (≈ 0.547 nM); % Cytotoxicity [4]: 77
CC[C@H](C)[C@H]1NC(=O)[C@@H](NC(=O)[C@@H](CC(C)C)N(C)C(=O)CN(C)C(=O)C(C)=O)[C@@H](C)OC(=O)[C@H](Cc2ccc(OC)cc2)N(C)C(=O)[C@@H]2CCCN2C(=O)[C@H](CC(C)C)NC(=O)[C@@H](C)C(=O)[C@H](C(C)C)OC(=O)C[C@@H]1O [Pyruv-Sar-DA, Pyruv-Sar Didemnin A] (Pyruvoyl-[Sar][dNMeL]T[X1]LP[NMeY](Me); ester 3-C)								% Protection (Visna virus (VIV)): I; IC50 (L1210 cells): 1 ng/mL (≈ 0.922 nM); cytotoxicity (L1210 cells): completely inactive
CC[C@H](C)[C@H]1NC(=O)[C@@H](NC(=O)[C@@H](CC(C)C)N(C)C(=O)[C@@H]2CCCN2C(C)=O)[C@@H](C)OC(=O)[C@H](Cc2ccc(OC)cc2)N(C)C(=O)[C@@H]2CCCN2C(=O)[C@H](CC(C)C)NC(=O)[C@@H](C)C(=O)[C@H](C(C)C)OC(=O)C[C@@H]1O [[Acetyl^9]Didemnin B (103), [Acetyl^9]didemnin B] (Ac-P[dNMeL]T[X1]LP[NMeY](Me); ester 3-C)	-123	3	2	67	85		0.2	
CC[C@H](C)[C@H]1NC(=O)[C@@H](NC(=O)[C@@H](CC(C)C)N(C)C(=O)[C@H]2CCCN2C(=O)C(C)C)[C@@H](C)OC(=O)[C@H](Cc2ccc(OC)cc2)N(C)C(=O)[C@@H]2CCCN2C(=O)[C@H](CC(C)C)NC(=O)[C@@H](C)C(=O)[C@H](C(C)C)OC(=O)C[C@@H]1O [[Isobutyryl^9 -D-Pro^8]didemnin B] (Isobutyryl-[dP][dNMeL]T[X1]LP[NMeY](Me); ester 3-C)		0	0	25	69	0, PT	10	
CCC(=O)N1CCC[C@H]1C(=O)N(C)[C@H](CC(C)C)C(=O)N[C@@H]1C(=O)N[C@H]([C@@H](C)CC)[C@@H](O)CC(=O)O[C@@H](C(C)C)C(=O)[C@H](C)C(=O)N[C@@H](CC(C)C)C(=O)N2CCC[C@H]2C(=O)N(C)[C@@H](Cc2ccc(OC)cc2)C(=O)O[C@@H]1C [[Propionyl^9] Didemnin B (104), [Propionyl^9]didemnin B] (Propionyl-P[dNMeL]T[X1]LP[NMeY](Me); ester 3-C)	-113					0, PT	0.2	
